Data published in patent US20060110456A1, “Method for biocidal and/or biostatic treatment and compositions therefor” (NATIONAL UNIVERSITY OF SINGAPORE, priority 2004, published 2006).
Converted amounts (≈) assume the structure as drawn. “Also recorded” adds a separate entry of the source. Counter-ions that a name gives are not always drawn.

Legend:
barnacle nauplii = test: Toxicity of drugs under different light conditions and over time (stability in seawater); assay type: in vivo, Balanus amphitrite; conditions: 25 ug ml^−1 seawater suspension; for Change in toxicity on ageing in seawater, 12L:12D condition: 12 h light and 12 h dark; for Effect of UV on drug toxicity to barnacle nauplii: UV for half an hour
Experimental: Preliminary experiments were carried out to examine the chemical stability of the drugs. 25 ug ml^−1 seawater suspensions of the drugs were prepared, in 3 replicates per condition, 3 replicate tubes containing 15 ml per test tube per prepared for each treatment type. The treatments consisted of: • i. Dark condition: tubes were wrapped in aluminium foil and kept in the dark at all times • ii. 12L:12D condition, where the tubes were subject incubated in a plant growth chamber with light regime of 12 hours light and 12 hours dark. • iii. UV treated tubes were subject to UV for half an hour. […] Sets (1) & (2) were tested at week 0, 1, 2 and after 4 weeks. “UV” set is only assayed after UV treatment. […] Effect of UV

[1] = tested on: Balanus amphitrite stage II naupliar larvae; conditions: for LD50: barnacle nauplii, 22 to 24 hours, concentration that caused 50% mortality
Experimental: (§1) Pharmaceuticals from the respective manufacturers were treated in the following way. A pill containing a known amount of active ingredient (as stated in product information) was ground in a mortar and pestle and a suspension of 2 mg ml^−1 generated in de-ionized water. This stock solution is stored at −20° C. in 4 ml amber screw cap vials. For the bioassays, 250 ul of stock solution is added to 10 ml of 1 um filtered seawater. This suspension was then sonicated for 10 minutes. Serial dilutions of this 50 μg ml^−1 seawater solution, or suspension, with seawater was done to generate the required range of concentrations.
Stage II naupliar larvae used in tests were obtained from Balanus amphitrite adults collected from inter-tidal rock walls at Kranji mangrove, Singapore. Larvae were collected from a container of adults by attraction to a point source of light and transferred to 500 ml of fresh seawater. Next, larvae were re-concentrated with a fiber optic light and added to assays.
Duplicate assays were conducted in 2 ml micro-centrifuge tubes (Axygen MCT-200-C) in 1.5 ml of filtered seawater for 22 to 24 hours. The assays were repeated for confirmation. There were four controls (vehicle only, 0 μg ml^−1), and 2 tubes of each for each test concentration. The assay was initiated by addition of barnacle nauplii in 50 to 100 μl of seawater.
After 22 to 24 hours of incubation at 25-27° C., solutions containing test animals were transferred to a Bogorov tray and scored as living or dead. Moribund larvae were scored as dead. Results were confirmed by repeating the assay. […] If data were not appropriate for probit analysis, the LC50 was estimated from graphed data.

[2] = tested on: Balanus amphitrite cyprids; test: whole plant or invertebrate; conditions: for IC50: Amphibalanus amphitrite, 24 h, read-out: ED50; for Prevention of settlement of barnacle cyprids: crude rank, best (1) to worst (8)
Experimental: as §1
This method is now standard practice for many antifouling screening of novel compounds.
Barnacle larvae from field-collected adults were reared on an algal mixture of 1:2:2 v/v of Rhodomonas salina, Tetraselmis suecica and Chaetoceros muelleri at 25° C., at approximately 5×10^5 cells per ml density. On this regime, larvae metamorphose to cyprids in 5 days.
Test solutions were made up to twice the required final concentration. 1 ml of test solution was added into each well, and cyprids were transferred into each well in 1 ml of seawater. Assays were done in triplicate. After 24 hours, larvae that had attached and metamorphosed were enumerated and the result expressed as percentage settlement. Larvae not attached were scored as not settled.
The Therapeutic Ratio, or LC50/EC50, is a way of assessing the effectiveness of the compound in relation to its toxicity. […] LC50 and EC50 estimates and the therapeutic ratio should be considered as working values providing an estimation of potency, rather than as absolutes.

[3] = in words; cited from earlier work
[4] = tested on: marine bacteria (ten strains); test: Bio-adhesion assay (crystal violet microplate); assay type: cell-based, marine bacteria isolated from Singapore fouling communities; conditions: for Effect on bacterial adhesion: polystyrene or tissue culture surface as named in the value; for Effect of drugs on adhesion of bacteria: 50 μl of 125 μg ml^−1 drug + 200 μl bacteria, 2 hours
Experimental: The effect of pharmaceuticals on bacterial adhesion was analyzed using a modified microplate method adapted from Shea and Williamson (1990). This method consists of staining the attached bacteria with crystal violet, releasing the stain with sodium desoxycholate, and measuring the resulting absorbance of the crystal violet. The absorbance is proportional to the degree of bacterial adhesion to the surface.
Ten strains of bacteria (strain numbers 1, 4, 9, 14, 18, 20, 27, 28, 29 and 30) were chosen for this study. Flat bottom non-tissue culture treated polystyrene (hydrophobic, Falcon #351172) (referred to as polystyrene) and flat bottom tissue culture treated polystyrene (hydrophilic, Falcon #353072) microplates were used in the analyses. These two types of plates were chosen because they were sterile and offered two different kinds of surfaces to determine the adhesion preferences of the bacteria. Each test was done in duplicate. For the control and blank wells, 50 μl of sterile deionized water were added. For those wells that were to contain drugs, 50 μl of drugs at concentration of 125 μg ml^−1 were added. Then 200 μl of bacteria suspension in sterile seawater, whose absorbance had been adjusted to 0.6 at 600 nm using a spectrophotometer (Beckman), were added. Blanks contained 200 μl of sterile seawater.
The bacteria in suspension were allowed to attach for 2 hours at 28° C. Unattached cells were removed by pipetting out almost all trace of liquid and rinsed three times with 300 μl of sterile seawater each time. The attached cells were stained with 200 μl of crystal violet solution (0.1% w/v) in each well for 5 min. After removing the stain by pipetting, the wells were rinsed twice with 300 μl of sterile deionized water each time. Sodium desoxycholate (200 μl) solution (2% w/v) was then added to each well to extract the crystal violet from the stained cells for 10 min. The absorbance of the extracted solution was read at 590 nm using a microplate reader (Sunrise, Tecan, Switzerland).
The data were analyzed using T-test (Two-sample assuming unequal variances) to determine the significance of the absorbance values of each bacterial strain versus the blanks to determine whether there was adhesion, i.e. increase in absorbance. Each drug effect on adhesion was analyzed by comparing the absorbance of each bacterial strain minus the control blank versus bacteria in presence of drug minus the drug control. When the data is significant, there are bacterial cells attached to the surface in the control but in the presence of drugs, there is no attachment.

[5] = strain 4 (Bacillus), hydrophobic surface (untreated polystyrene)
[6] = strain 9 (Bacillus), hydrophobic surface (untreated polystyrene)
[7] = strain 14 (Vibrio), hydrophobic surface (untreated polystyrene)
[8] = strain 18 (Microbacterium), hydrophobic surface (untreated polystyrene)
[9] = strain 20, hydrophobic surface (untreated polystyrene)
[10] = strain 27, hydrophobic surface (untreated polystyrene)
[11] = strain 28, hydrophobic surface (untreated polystyrene)
[12] = strain 29, hydrophobic surface (untreated polystyrene)
[13] = strain 30, hydrophilic surface (tissue culture treated polystyrene)
[14] = strain 1 (Rhodovulum), hydrophobic surface (untreated polystyrene)

Row | Compound | Change in toxicity on ageing in seawater, 12L:12D condition (barnacle nauplii; after 4 weeks) | Effect of UV on drug toxicity to barnacle nauplii (barnacle nauplii) | LD50 [1] [ng/mL] | IC50 [2] [µg/mL] | Prevention of settlement of barnacle cyprids [2] | Solubility [3] | Effect of drugs on adhesion of bacteria [4, 5] | Effect of drugs on adhesion of bacteria [4, 6] | Effect of drugs on adhesion of bacteria [4, 7] | Effect of drugs on adhesion of bacteria [4, 8] | Effect of drugs on adhesion of bacteria [4, 9] | Effect of drugs on adhesion of bacteria [4, 10] | Effect of drugs on adhesion of bacteria [4, 11] | Effect of drugs on adhesion of bacteria [4, 12] | Effect of drugs on adhesion of bacteria [4, 13] | Effect of drugs on adhesion of bacteria [4, 14] | other results
1 | Cc1nccn1CC1CCc2c(c3ccccc3n2C)C1=O (centres unmarked) [ZFN, ondansetron hydrochloride] | increased in toxicity | reduction in toxicity under UV | 468.96 | 0.242 | 5 | soluble in saline and water | ** (** p < 0.01) | *** (*** p < 0.005) | * (Significantly less adhesion observed: * p < 0.05) | * (Significantly less adhesion observed: * p < 0.05) | ** (** p < 0.01) | *** (*** p < 0.005) | *** (*** p < 0.005) | * (Significantly less adhesion observed: * p < 0.05) | * (Significantly less adhesion observed: * p < 0.05) | – | Effect on bacterial adhesion ([4]; hydrochloride): prevented biofilm formation for almost all strains in the polystyrene surface; also recorded: increased cell adhesion in the tissue culture surface for strain 30; Effect of drugs on adhesion of bacteria ([4]; strain 30, hydrophobic surface (untreated polystyrene)): * (Significantly less adhesion observed: * p < 0.05)
2 | CN[C@H]1CC[C@@H](c2ccc(Cl)c(Cl)c2)c2ccccc21.Cl [ZLT, sertraline hydrochloride] | not altered by any of the treatments applied | not altered by any of the treatments applied | 1.58 | – | 6 | slightly soluble in water | *** (*** p < 0.005) | * (Significantly less adhesion observed: * p < 0.05) | – | – | *** (*** p < 0.005) | *** (*** p < 0.005) | *** (*** p < 0.005) | – | *** (*** p < 0.005) | *** (*** p < 0.005) | Change in toxicity on ageing in seawater, dark condition (barnacle nauplii; after 4 weeks): not altered by any of the treatments applied; Toxicity to barnacle nauplii ([1]; crude rank, best (1) to worst (8)): 1; ED50 ([2]; barnacle cyprids, 24 hours, concentration that caused 50% settlement inhibition): 0.50185 µg/mL
3 | Cc1cc2c(s1)Nc1ccccc1N=C2N1CCN(C)CC1 [ZPX, olanzapine] | marked decrease in toxicity | – | 505.82 | 0.00231 (≈ 7.39 nM) | 1 | practically insoluble in water | * (Significantly less adhesion observed: * p < 0.05) | *** (*** p < 0.005) | ** (** p < 0.01) | * (Significantly less adhesion observed: * p < 0.05) | *** (*** p < 0.005) | *** (*** p < 0.005) | *** (*** p < 0.005) | * (Significantly less adhesion observed: * p < 0.05) | * (Significantly less adhesion observed: * p < 0.05) | *** (*** p < 0.005) | Effect on settlement of cyprids ([2]; in words): at concentrations less than 1 ug ml^−1, the cyprids were not killed but were not able to settle; also recorded: prevented the settlement of cyprids; Mortality of cyprids ([2]; settlement bioassay wells): not very different from the control; Effect on bacterial adhesion [4]: prevented biofilm formation for almost all strains in the polystyrene surface
